In patent US20030108556A1 (priority 2001, published 2003):
“Also recorded” adds a separate entry of the source. Ends that are not written are not given here.

Experiments:
PA63 heptamer [1] = target: T1, PA63 heptamer (Bacillus anthracis, UniProt P13423)
PA63 heptamer [2] = target: T1, PA63 heptamer; experiment: biochemical; format: binding

T1 sequence (P13423 197-764 limits assumed): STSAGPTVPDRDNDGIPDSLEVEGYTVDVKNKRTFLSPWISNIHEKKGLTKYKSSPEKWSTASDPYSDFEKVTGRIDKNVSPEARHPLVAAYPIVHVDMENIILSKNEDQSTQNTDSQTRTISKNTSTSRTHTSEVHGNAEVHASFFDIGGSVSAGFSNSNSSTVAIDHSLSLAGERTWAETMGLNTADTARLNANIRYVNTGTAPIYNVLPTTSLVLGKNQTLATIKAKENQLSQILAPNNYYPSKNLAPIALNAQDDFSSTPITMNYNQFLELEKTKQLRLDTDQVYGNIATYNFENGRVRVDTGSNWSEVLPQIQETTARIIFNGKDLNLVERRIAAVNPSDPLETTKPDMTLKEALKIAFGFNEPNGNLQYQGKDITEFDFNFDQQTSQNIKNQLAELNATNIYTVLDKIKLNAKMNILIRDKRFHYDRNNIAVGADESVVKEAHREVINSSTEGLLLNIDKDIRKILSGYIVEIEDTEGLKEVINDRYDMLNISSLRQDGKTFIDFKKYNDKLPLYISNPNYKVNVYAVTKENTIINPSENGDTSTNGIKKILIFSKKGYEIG

Substance	properties of phage compared with P1 and P2 (PA63 heptamer [1])	effect on binding of radiolabeled LFN to PA63 on CHO cells (PA63 heptamer [2])	other results
CWSSFAWYC	showed the same properties as P1 and P2		
FDLPFTMSTPTP [reference compound]		no effect	
HTSTYWWLD		all but one, HTSTYWWLD, could prevent; also recorded: could not compete	
HTSTYWWLDGAP			IC50 (PA63 heptamer [2]): ~150 µM
HYTYWWL	showed the same properties as P1 and P2		
